Columns and labels:
Type in all cases: biochemical
EGFR = EGFR (Homo sapiens (Human), UniProt P00533); test: Enzyme selectivity test (ELISA), EGFR
Experimental: (§1) 1) Enzyme reaction substrate Poly(Glu, Tyr) 4:1 was diluted to 20 μg/mL with potassium-free PBS (10 mM sodium phosphate buffer, 150 mM NaCl, pH 7.2-7.4), and the microtiter plate was coated with 125 μL/well and placed at 37° C. for 12-16 hours of reaction. The liquid in the well was discard. The plate was washed three times with T-PBS (potassium-free PBS containing 0.1% Tween-20, 200 μL/well), 5 minutes each time. The ELISA plate was dried in an oven at 37° C. for 1 to 2 hours.
(§2) 2) Reaction buffer (50 mM HEPES pH 7.4, 50 mM MgCl2, 0.5 mM MnCl2, 0.2 mM Na3VO4, 1 mM DTT) diluted ATP solution (49 μL) was added to each well, 1 μL of the compound to be tested was added to each well, and then 50 μL of DDR2 kinase domain recombinant protein diluted in the reaction buffer was added to start the reaction. Two control wells without ATP were set in each experiment. The plate placed on a shaker (100 rpm) at 37° C. for 1 hour of reaction. The liquid in the well was discarded and the plate was washed three times with T-PBS.
(§3) 3) Antibody PY99 dilution solution (the antibody was diluted 1:500 with T-PBS containing BSA 5 mg/mL) was added at 100 μL/well, and shaken on a shaker at 37° C. for 0.5 hour of reaction. The liquid in the well was discarded and the plate was washed three times with T-PBS.
(§4) 4) Horseradish peroxidase labeled goat anti-murine secondary antibody dilution solution (the antibody is diluted 1:2000 with T-PBS containing BSA 5 mg/ml) was added at 100 μL/well, and shaken on a shaker at 37° C. for 0.5 hour of reaction. The liquid in the well was discarded and the plate was washed three times with T-PBS.
(§5) 5) 2 mg/ml of OPD color developing solution [diluted with 0.1 M citric acid-sodium citrate buffer (pH=5.4) containing 0.03% H2O2] was added at 100 μL/well and reacted for 1 to 10 minutes at 25° C. in the dark.
(§6) 6) 2M H2SO4 was added at 50 μL/well to stop the reaction, and a tunable wavelength microplate reader VERSAmax was used for reading at a wavelength of 490 nm.
(§7) The IC50 value was obtained by four-parameter regression using the software that came with the microplate reader. […]

VEGFR-1 = VEGFR-1 (Homo sapiens (Human), UniProt P17948); test: Enzyme selectivity test (ELISA), VEGFR-1
Experimental: as §1, §2, §3, §4, §5, §6, §7

ALK = ALK (Homo sapiens (Human), UniProt Q9UM73); test: Enzyme selectivity test (ELISA), ALK
Experimental: as §1, §2, §3, §4, §5, §6, §7

KDR = KDR (Homo sapiens (Human), UniProt P35968); test: Enzyme selectivity test (ELISA), KDR
Experimental: as §1, §2, §3, §4, §5, §6, §7

DDR2 = DDR2 (Homo sapiens (Human), UniProt Q16832); test: DDR2 enzyme activity test (ELISA); details: read-out: DDR2 IC50
Experimental: The optical rotation and the inhibitory activity against DDR2 enzyme of the compounds S11-A and S11-B obtained by the resolution in Example 12, and the chirally synthesized compounds S11-A′ and S11-B′ in Example 13 were tested (referred to the operation in Effect example 1), and the results are shown in Table 3 below:
Detection method: Enzyme-linked immunosorbent assay (ELISA)
Test receptor tyrosine kinase: DDR2
The kinase used in the experiment was obtained by our laboratory using the insect baculovirus expression system to express and purify the recombinant protein containing the protein kinase region; polyglutamic acid-tyrosine peptide segment [Poly(Glu, Tyr) 4:1] and sodium vanadate were purchased from Sigma; the anti-phosphorylated monoclonal antibody PY99 was purchased from Santa Cruz; horseradish peroxidase labeled goat anti-murine secondary antibody was purchased from Calbiochem; ATP and OPD were purchased from Sangon Biotech (Shanghai) Co., Ltd.; the remaining reagents were purchased from Sinopharm Chemical Reagent Co., Ltd. The reaction ELISA plate (#2592) was purchased from Corning. The full-wavelength microplate reader for experiment reading was a product of Molecular Device, model: SpectraMax 190; the experimental water was distilled water produced by Sinopharm Group.
The compound was centrifuged at 12,000 g for 5 min, and DMSO was added to prepare a 10^-2M stock solution, which was vortexed evenly, then sonicated for 10 min and stored at −40° C. for later use. During the test, the compound was diluted with DMSO from the stock solution to 100 times the test concentration (the DMSO concentration in the system was 1%).
as §1, §2, §3, §4, §5, §6
The IC50 value was obtained by four-parameter regression using the software that came with the microplate reader.

FGFR-4 = FGFR-4 (Homo sapiens (Human), UniProt P22455); test: Enzyme selectivity test (ELISA), FGFR-4
Experimental: as §1
as §2, with “T-PBS. […]” for “T-PBS.”
as §6, §7

ErbB4 = ErbB4 (Homo sapiens (Human), UniProt Q15303); test: Enzyme selectivity test (ELISA), ErbB4
Experimental: as §1, §2, §3, §4, §5, §6, §7

EPH-A2 = EPH-A2 (Homo sapiens (Human), UniProt P29317); test: Enzyme selectivity test (ELISA), EPH-A2
Experimental: as §1, §2, §3, §4, §5, §6, §7

C-Kit = C-Kit (Homo sapiens (Human), UniProt P10721); test: Enzyme selectivity test (ELISA), C-Kit
Experimental: as §1, §2, §3, §4, §5, §6, §7

RET = RET (Homo sapiens (Human), UniProt P07949); test: Enzyme selectivity test (ELISA), RET
Experimental: as §1, §2, §3, §4, §5, §6, §7

kinases = test: Enzyme selectivity test, kinase panel overall; details: kinase panel of Table 5
Source text: Except that the enzyme was different, other test methods and conditions were the same as the DDR2 enzyme activity test method in Effect example 1.

Flt-3 = Flt-3 (Homo sapiens (Human), UniProt P36888); test: Enzyme selectivity test (ELISA), Flt-3
Experimental: as §1, §2, §3, §4, §5, §6, §7

Met = Met (Homo sapiens (Human), UniProt P08581); test: Enzyme selectivity test (ELISA), Met
Experimental: as §1, §2, §3, §4, §5, §6, §7

Abl = Abl (Homo sapiens (Human), UniProt P00519); test: Enzyme selectivity test (ELISA), Abl
Experimental: as §1, §2, §3, §4, §5, §6, §7

ErbB2 = ErbB2 (Homo sapiens (Human), UniProt P04626); test: Enzyme selectivity test (ELISA), ErbB2
Experimental: as §1, §2, §3, §4, §5, §6, §7

FGFR-3 = FGFR-3 (Homo sapiens (Human), UniProt P22607); test: Enzyme selectivity test (ELISA), FGFR-3
Experimental: as §1
as §2, with “T-PBS. […]” for “T-PBS.”
as §6, §7

PDGFR-α = PDGFR-α (Homo sapiens (Human), UniProt P16234); test: Enzyme selectivity test (ELISA), PDGFR-α
Experimental: as §1, §2, §3, §4, §5, §6, §7

FGFR-2 = FGFR-2 (Homo sapiens (Human), UniProt P21802); test: Enzyme selectivity test (ELISA), FGFR-2
Experimental: as §1
as §2, with “T-PBS. […]” for “T-PBS.”
as §6, §7

FGFR-1 = FGFR-1 (Homo sapiens (Human), UniProt P11362); test: Enzyme selectivity test (ELISA), FGFR-1
Experimental: as §1, §2, §3, §4, §5, §6, §7

P38 MAPK = test: Enzyme selectivity test (ELISA), P38 MAPK
Experimental: as §1
as §2, with “T-PBS. […]” for “T-PBS.”
as §6, §7

IGF-1R = IGF-1R (Homo sapiens (Human), UniProt P08069); test: Enzyme selectivity test (ELISA), IGF-1R
Experimental: as §1, §2, §3, §4, §5, §6, §7

Src = Src (Homo sapiens (Human), UniProt P12931); test: Enzyme selectivity test (ELISA), Src
Experimental: as §1, §2, §3, §4, §5, §6, §7

AXL = AXL (Homo sapiens (Human), UniProt P30530); test: Enzyme selectivity test (ELISA), AXL
Experimental: as §1, §2, §3, §4, §5, §6, §7

PDGFR-β = PDGFR-β (Homo sapiens (Human), UniProt P09619); test: Enzyme selectivity test (ELISA), PDGFR-β
Experimental: as §1, §2, §3, §4, §5, §6, §7

Chain of IGF-1R (P08069 31-1367, species assumed): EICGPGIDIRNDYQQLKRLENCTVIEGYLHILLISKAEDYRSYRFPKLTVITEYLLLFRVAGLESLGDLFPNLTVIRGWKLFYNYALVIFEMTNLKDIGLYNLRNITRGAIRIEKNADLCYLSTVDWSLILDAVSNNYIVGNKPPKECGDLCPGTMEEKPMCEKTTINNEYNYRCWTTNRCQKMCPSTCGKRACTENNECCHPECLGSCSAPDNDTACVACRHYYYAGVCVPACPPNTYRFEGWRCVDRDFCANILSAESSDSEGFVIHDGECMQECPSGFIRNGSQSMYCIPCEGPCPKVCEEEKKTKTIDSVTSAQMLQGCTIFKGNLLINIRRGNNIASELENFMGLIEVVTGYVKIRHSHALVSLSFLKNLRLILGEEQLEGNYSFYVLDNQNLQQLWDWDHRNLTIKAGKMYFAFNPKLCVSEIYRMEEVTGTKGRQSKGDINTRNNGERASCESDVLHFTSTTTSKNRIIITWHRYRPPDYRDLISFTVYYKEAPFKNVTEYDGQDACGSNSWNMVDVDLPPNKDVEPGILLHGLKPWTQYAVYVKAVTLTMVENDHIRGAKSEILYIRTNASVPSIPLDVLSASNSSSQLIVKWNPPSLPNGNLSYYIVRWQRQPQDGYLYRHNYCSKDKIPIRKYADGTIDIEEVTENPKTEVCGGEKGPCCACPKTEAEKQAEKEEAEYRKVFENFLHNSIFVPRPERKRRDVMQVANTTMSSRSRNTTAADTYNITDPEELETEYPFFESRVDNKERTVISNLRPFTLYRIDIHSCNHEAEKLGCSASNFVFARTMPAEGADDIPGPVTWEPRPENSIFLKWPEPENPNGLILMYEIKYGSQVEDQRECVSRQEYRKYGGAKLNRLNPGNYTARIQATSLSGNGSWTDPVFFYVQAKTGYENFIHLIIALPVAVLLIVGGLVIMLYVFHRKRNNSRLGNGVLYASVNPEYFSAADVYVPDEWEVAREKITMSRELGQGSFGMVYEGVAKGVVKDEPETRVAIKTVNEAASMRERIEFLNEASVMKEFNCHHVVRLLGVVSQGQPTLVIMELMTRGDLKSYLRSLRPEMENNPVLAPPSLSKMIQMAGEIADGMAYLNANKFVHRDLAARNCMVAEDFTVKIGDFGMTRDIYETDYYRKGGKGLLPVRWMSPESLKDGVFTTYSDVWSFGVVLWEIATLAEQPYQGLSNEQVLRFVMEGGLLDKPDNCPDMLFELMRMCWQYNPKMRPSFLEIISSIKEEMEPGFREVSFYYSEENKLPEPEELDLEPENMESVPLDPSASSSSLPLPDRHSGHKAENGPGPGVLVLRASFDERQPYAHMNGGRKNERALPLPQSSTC
Chain of AXL (P30530 26-894, species assumed): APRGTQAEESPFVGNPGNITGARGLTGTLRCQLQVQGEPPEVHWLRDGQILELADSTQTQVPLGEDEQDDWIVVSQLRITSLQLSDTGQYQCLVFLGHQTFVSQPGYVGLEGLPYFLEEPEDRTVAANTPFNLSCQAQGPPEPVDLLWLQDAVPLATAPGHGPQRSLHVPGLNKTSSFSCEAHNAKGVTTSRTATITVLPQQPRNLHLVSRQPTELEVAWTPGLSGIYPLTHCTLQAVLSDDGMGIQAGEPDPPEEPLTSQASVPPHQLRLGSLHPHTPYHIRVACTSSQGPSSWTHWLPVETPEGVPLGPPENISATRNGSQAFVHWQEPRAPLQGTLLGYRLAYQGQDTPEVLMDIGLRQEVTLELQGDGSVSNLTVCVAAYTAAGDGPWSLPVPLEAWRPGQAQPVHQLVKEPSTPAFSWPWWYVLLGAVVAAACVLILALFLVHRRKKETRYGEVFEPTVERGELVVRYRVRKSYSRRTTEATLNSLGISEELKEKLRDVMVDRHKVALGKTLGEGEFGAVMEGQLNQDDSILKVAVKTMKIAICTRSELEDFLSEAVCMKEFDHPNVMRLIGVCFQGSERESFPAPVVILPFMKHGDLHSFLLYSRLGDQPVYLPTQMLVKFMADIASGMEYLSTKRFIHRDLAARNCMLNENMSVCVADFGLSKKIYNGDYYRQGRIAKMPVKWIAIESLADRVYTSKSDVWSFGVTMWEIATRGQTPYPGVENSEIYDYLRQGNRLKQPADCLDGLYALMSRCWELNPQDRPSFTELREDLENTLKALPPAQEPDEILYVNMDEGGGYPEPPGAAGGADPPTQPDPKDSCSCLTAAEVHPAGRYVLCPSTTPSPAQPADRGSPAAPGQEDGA
Chain of C-Kit (P10721 26-976): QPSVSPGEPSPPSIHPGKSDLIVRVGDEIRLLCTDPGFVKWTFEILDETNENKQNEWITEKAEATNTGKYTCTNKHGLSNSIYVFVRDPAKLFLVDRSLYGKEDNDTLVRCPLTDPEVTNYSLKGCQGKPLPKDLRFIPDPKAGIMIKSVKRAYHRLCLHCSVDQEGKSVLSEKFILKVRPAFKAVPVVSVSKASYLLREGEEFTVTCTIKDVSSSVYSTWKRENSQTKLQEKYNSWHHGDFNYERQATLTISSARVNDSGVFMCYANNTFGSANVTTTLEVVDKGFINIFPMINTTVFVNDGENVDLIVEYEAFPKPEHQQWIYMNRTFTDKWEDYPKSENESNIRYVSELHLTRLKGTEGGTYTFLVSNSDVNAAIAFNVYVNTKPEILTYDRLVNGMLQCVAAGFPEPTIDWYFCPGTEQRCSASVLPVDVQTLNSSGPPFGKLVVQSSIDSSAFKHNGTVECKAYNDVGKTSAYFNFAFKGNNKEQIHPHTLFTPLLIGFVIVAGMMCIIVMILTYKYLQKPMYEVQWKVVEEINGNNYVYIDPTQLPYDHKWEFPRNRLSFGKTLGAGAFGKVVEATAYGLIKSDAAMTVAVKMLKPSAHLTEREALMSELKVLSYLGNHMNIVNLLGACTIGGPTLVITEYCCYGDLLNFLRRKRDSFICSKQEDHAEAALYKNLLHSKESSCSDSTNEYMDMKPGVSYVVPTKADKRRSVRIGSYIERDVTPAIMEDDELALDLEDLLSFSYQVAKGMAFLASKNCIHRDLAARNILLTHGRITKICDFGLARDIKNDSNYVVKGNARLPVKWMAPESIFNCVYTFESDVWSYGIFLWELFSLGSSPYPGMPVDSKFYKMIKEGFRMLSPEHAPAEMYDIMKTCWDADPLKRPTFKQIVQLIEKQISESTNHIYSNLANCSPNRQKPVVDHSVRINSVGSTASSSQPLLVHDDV
Chain of VEGFR-1 (P17948 27-1338, species assumed): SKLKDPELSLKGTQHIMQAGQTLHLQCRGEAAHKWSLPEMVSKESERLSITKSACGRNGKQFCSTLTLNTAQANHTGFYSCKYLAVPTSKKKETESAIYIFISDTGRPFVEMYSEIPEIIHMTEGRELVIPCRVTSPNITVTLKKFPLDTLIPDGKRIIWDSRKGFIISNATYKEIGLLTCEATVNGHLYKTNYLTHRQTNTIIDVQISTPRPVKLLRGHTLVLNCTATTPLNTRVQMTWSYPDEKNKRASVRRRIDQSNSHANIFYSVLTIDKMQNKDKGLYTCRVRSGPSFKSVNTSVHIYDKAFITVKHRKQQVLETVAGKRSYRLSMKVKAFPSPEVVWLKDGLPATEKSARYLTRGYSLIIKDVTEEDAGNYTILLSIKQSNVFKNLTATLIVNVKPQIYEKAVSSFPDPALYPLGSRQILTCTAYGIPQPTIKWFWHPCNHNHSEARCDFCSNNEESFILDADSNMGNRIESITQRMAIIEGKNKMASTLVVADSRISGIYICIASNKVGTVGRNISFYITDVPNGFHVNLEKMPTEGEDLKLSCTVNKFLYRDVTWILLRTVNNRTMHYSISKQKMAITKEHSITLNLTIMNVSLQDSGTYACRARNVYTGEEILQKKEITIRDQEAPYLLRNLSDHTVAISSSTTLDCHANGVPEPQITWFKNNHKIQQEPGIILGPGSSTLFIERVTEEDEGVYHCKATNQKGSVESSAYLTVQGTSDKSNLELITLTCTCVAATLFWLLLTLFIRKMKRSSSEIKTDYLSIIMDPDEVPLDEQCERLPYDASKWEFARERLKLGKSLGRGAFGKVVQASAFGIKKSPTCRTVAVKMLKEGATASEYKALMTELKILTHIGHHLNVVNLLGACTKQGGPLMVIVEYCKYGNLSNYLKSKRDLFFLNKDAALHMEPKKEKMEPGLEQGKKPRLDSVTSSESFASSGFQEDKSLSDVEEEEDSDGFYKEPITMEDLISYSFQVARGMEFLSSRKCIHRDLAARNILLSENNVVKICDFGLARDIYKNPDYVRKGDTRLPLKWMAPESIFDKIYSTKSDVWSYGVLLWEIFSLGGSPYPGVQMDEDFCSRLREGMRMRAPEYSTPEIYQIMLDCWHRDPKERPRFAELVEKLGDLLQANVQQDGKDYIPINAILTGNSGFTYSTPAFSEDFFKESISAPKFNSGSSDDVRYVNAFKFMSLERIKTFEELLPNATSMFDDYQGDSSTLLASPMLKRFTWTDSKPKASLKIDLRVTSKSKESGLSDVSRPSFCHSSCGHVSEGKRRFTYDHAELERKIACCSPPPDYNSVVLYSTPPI
Chain of DDR2 (Q16832 563-849): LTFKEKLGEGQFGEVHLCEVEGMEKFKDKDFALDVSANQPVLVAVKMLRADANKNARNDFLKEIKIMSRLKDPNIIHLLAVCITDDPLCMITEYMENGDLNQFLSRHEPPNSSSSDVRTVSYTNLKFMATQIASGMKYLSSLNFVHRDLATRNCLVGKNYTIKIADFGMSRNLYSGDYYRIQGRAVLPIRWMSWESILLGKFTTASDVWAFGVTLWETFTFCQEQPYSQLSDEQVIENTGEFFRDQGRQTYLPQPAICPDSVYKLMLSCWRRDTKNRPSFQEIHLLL

| Compound | IC50 (EGFR) [µM] | IC50 (VEGFR-1) [µM] | IC50 (ALK) [µM] | IC50 (KDR) [µM] | IC50 (DDR2) [µM] | IC50 (FGFR-4) [µM] | IC50 (ErbB4) [µM] | IC50 (EPH-A2) [µM] | IC50 (C-Kit) [µM] | IC50 (RET) [µM] | selectivity for kinases (kinases) | IC50 (Flt-3) [µM] | IC50 (Met) [µM] | IC50 (Abl) [µM] | IC50 (ErbB2) [µM] | IC50 (FGFR-3) [µM] | IC50 (PDGFR-α) [µM] | IC50 (FGFR-2) [µM] | IC50 (FGFR-1) [µM] | IC50 (IGF-1R) [µM] | further results |
| --- | --- | --- | --- | --- | --- | --- | --- | --- | --- | --- | --- | --- | --- | --- | --- | --- | --- | --- | --- | --- | --- |
| CCC(NC(=O)c1ccc(C2CC2)c(-c2ccc3nc(Nc4cnn(C5CC5)c4)ncc3c2)c1)c1cccc(C(F)(F)F)c1 (centres unmarked) [Compound S18] | > 1 | > 1 | > 1 | > 1 | 0.0037 ± 0.0002 | > 1 | > 1 | > 1 | > 1 | > 1 | good selectivity | > 1 | > 1 | > 1 | > 1 | > 1 | > 1 | > 1 | > 1 | > 1 | IC50 (P38 MAPK): > 1 µM; IC50 (Src): > 1 µM; IC50 (AXL): > 1 µM; IC50 (PDGFR-β): > 1 µM |
| CC(NC(=O)c1ccc(C2CC2)c(-c2ccc3nc(Nc4cnn(C5CC5)c4)ncc3c2)c1)c1cccc(C(F)(F)F)c1 (centres unmarked) [Compound S16, 4-cyclopropyl-3-(2-((1-cyclopropyl-1H-pyrazol-4-yl)amino)quinazolin-6-yl)-N-(1-(3-(trifluoromethyl)phenyl)ethyl)benzamide] | > 1 | > 1 | > 1 | > 1 | 0.0383 ± 0.0028 | > 1 | > 1 | > 1 | > 1 | > 1 | good selectivity | > 1 | > 1 | > 1 | > 1 | > 1 | > 1 | > 1 | > 1 | > 1 | IC50 (Src): > 1 µM; IC50 (AXL): > 1 µM; IC50 (PDGFR-β): > 1 µM |
